Read-outs that look alike come from different tables or passages of the source. Each block holds one compound with its values, some of them ahead of it.
Experiments:
keratinocytes [1] = assay: 3H-Thymidine incorporation and keratinocyte proliferation (Example 1A); format: cell-based, Human; conditions: for mean Thymidine incorp./μg protein ± s.d: 24 hours, n = 3
Method: (§1) Human keratinocytes, isolated from neonatal foreskin by trypsin treatment were grown in Dulbecco Modification Eagle (DME) Hams F12 (1:1) medium/10% fetal calf serum in the presence of irradiated 3T3 mouse fibroblasts for establishing dividing keratinocyte colonies. Cells were grown under the above condition until their second passage and kept frozen for future use. Frozen second passage keratinocytes were thawed and plated into the above medium and grown for five days before they were switched to a serum-free MCDB 153-based medium keratinocyte growth medium (KGM) from Clonetics Corporation, San Diego, Calif., containing 0.15 mM Ca, or keratinocyte serum-free media (KSFM) from GIBCO containing 0.09 mM Ca). On day 7, when the cells were 80-90% confluent, they were trypsinized and plated in the serum-free medium for the various experiments.
The incorporation of ^3 H-thymidine by cultured keratinocytes was used as an assay of keratinocyte proliferation. Thymidine is one of four deoxynucleosides which are the monomeric units of DNA, the universal library of genetic information in the animal kingdom. Prior to cell division of a somatic cell such as a keratinocyte, the complete genome of the cell undergoing cell division is replicated. This involves large scale DNA synthesis by the cell and enables both daughter cells to receive identical copies of the genetic material. When ^3 H-thymidine is included in the culture media of keratinocytes which are synthesizing DNA in preparation for cell division then the labelled nucleoside is incorporated into the newly synthesized DNA. The extent of incorporation of ^3 H-thymidine into a population of cells is proportional to the rate of DNA synthesis by this population of cells and therefore an indication of their cellular proliferation.
Keratinocytes (that were cultured as described above) were plated in 24 well plates at a density of about 20,000 cells per well in 1 ml media. After incubation for four days or until the cells were 60-70% confluent, the media was changed. Test compounds were added (in triplicate) to the wells 24 hours after the media change, and four hours later 1μCi ^3 H-Thymidine in 50 μl media was added per well. Cells were incubated for a further 24 hours. Media was removed from the cells, 10% ice cold trichloroacetic acid (TCA) added and plates were incubated on ice for 30 minutes. Cells were washed five times with 5% TCA and allowed to dissolve in 500 μl 0.1M NaOH for at least one hour (usually overnight). The preparations were neutralized with 0.1M HCl; 50 μl of the cell preparation was used to determine total protein content. Disintegrations per minute (DPM) from ^3 H labelling of DNA was determined by liquid scintillation counting of 900 μl of the cell preparation. Thymidine incorporation results were expressed as DPM/μg protein.

keratinocytes [2] = assay: Transglutaminase assay and keratinocyte differentiation, TGase normalized to DNA (Example 1B); format: cell-based, Human; conditions: for keratinocyte differentiation / transglutaminase level (in words): […]10^-7 M, […]10^-8 M and […]10^-9 M, vs ethanol control; for mean TGase/DNA × 10^-4 ± s.d: 72 hours, n = 3
Method: as §1
(§2) During the process of terminal differentiation in the epidermis, a 15 nm thick layer of protein, known as the cornified envelope (CE) is formed on the inner surface of the cell periphery. The CE is composed of numerous distinct proteins which have been cross-linked together by the formation of N ^ε -(γ-glutamyl) lysine isodipeptide bonds catalyzed by the action of at least two different transglutaminases (TGases) expressed in the epidermis. TGase I is expressed in abundance in the differentiated layers of the epidermis, especially the granular layer, but is absent in the undifferentiated basal epidermis. Thus TGase I is a useful marker of epidermal keratinocyte differentiation with high TGase I levels indicating a more differentiated state. An ELISA based TGase I assay, using a TGase I antibody, was used to assess the state of differentiation of the cultured keratinocytes in the examples that follow.
Keratinocytes (cultured as described above) were plated in 96 well plates at a density of 3,000 cells per well in 200 μl media. After incubation for four days the media was changed to media containing test compounds (six replicates per test). The cells were cultured for a further 72 hours after which time the media was aspirated and the plates stored at -70° C. Plates were removed from the freezer, and the cells washed with PBS. 100 μl sterile water was added and the cells were freeze fractured by freezing at -70° C. then thawing. The cells were incubated for one hour at room temperature (R/T) with PBS/3% BSA (wash buffer, bovine serum albumin), then rinsed with a fresh aliquot of wash buffer. Cells were incubated with 50 μl of primary antibodies monoclonal anti-human transglutaminase mouse antibody (IgG) obtained from Biomedical Industries diluted 1:2,000 in wash buffer for one hour, 37° C. then rinsed two times with wash buffer. Cells were then incubated with 50 μl of secondary antibody (Fab fragment, peroxidase conjugated anti-mouse IgG obtaining from Amersham) diluted 1:4,000 in wash buffer for one hour at 37° C., then rinsed two times with wash buffer. […] The absorbance of samples was read at 492 nm in the plate reader. […] TGase levels were determined by subtracting background from the readings from each treatment and determining mean±s.d. for the replicates exposed to both Ab.
The level of TGase-1 detected after treatment of the cells could be influenced by cell number, i.e., the greater the number of cells the greater the level of TGase-1 detected. […]

keratinocytes [3] = assay: Transglutaminase assay, keratinocyte differentiation (Example 4), normalized to DNA; format: cell-based, Human; conditions: for activity at […]: .00025 mM; for effect on transglutaminase / keratinocyte differentiation (in words): Table D, both experiments; for activity at 1000 µM: 1 mM
Method: as §1, §2
Keratinocytes (cultured as described above) were plated in 96 well plates at a density of 3,000 cells per well in 200 μl of cell culture media. After incubation for four days, the media was changed to media containing test compounds (six replicates per test). The cells were cultured for a further 72 hours after which time the media was aspirated and the plates stored at -70° C. After the plates were removed from the freezer, the cells were further freezed fractured by freezing and thawing and then washed 3× with PBS. The cells were incubated for one hour at room temperature (R/T) with TBS/5% BSA buffer. Cells were then incubated with 100 μl of monoclonal anti-human transglutaminase (IgG) mouse antibody (primary antibody) obtained from Biomedical Technologies Inc. diluted 1:2000 in TBS/1% BSA buffer for two hours at 37° C., and then rinsed six times with wash buffer (TBS/1% BSA/0.05% Tween-20). Cells were next incubated with 100 μl of Fab fragment, peroxidase conjugated anti-mouse IgG antibody (secondary antibody) from Amersham diluted 1:4,000 in wash buffer for two hours at 37° C. and then rinsed three times with wash buffer and three times with PBS. Cells were incubated with substrate solution (4 mg o-phenylene diamine and 3.3 μl 30% H2 O2 in 10 mL 0.1M citrate buffer, pH 5.0) for five minutes at R/T and in darkness (under aluminum foil). The reaction was stopped by the addition of 50 μl 4N H2SO4. The absorbance of samples was read at 492 nm in the plate reader. Out of the six replicates, four were treated with both antibodies, two were treated only with the secondary antibody (i.e., to determine the background binding of the enzyme conjugated antibody). Transglutaminase I levels were determined by subtracted background from the readings from each treatment and determining the mean s.d. for the replicates exposed to both antibodies.
The level of TGase-1 detected after treatment of the cells could be influenced by cell number, i.e., the greater the number of cells the greater the level of TGase-1 detected. The level of TGase-1 was normalized to DNA content of the cells in the same well thus eliminating variation due to differences in cell number. […]

LRAT = target: T1, LRAT (Bos taurus, UniProt Q9BGL2); assay: In vitro microsomal esterification of retinol, LRAT catalyzed (retinyl laurate formation); format: biochemical, bovine; conditions: for inhibition at 10 µM: Table B
T1 construct: microsomal fraction isolated from bovine retinal pigment epithelial cells; from tissue; host or cells: bovine retinal pigment epithelial cells, microsomal fraction
T1 sequence (Q9BGL2 1-230): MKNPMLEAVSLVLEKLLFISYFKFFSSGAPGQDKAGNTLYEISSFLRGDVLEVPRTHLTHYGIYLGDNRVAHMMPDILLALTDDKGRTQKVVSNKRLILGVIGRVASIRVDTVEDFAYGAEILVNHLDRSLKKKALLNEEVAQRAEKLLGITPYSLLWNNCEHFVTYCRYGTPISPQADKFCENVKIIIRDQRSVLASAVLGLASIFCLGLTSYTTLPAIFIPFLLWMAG

[4] = Homo sapiens, Keratinocyte, Experiment 2, read-out: Transglutaminase level, % CONTROL

SMILES: CC1=C(/C=C/C(C)=C/C=C/C(C)=C/C(=O)O)C(C)(C)CCC1 [Retinoic acid]
keratinocyte proliferation (in words) (keratinocytes [1]; […]10^-7 M, […]10^-8 and […]10^-9 M, over ethanol control and each retinol treatment): significantly increased keratinocyte proliferation
mean Thymidine incorp./μg protein ± s.d (keratinocytes [1]; […] 10^-7 M): 2475 ± 116 DPM/μg protein
mean Thymidine incorp./μg protein ± s.d (keratinocytes [1]; […] 10^-8 M): 2686 ± 72 DPM/μg protein
mean Thymidine incorp./μg protein ± s.d (keratinocytes [1]; […] 10^-9 M): 2556 ± 80 DPM/μg protein
keratinocyte differentiation / transglutaminase level (in words) (keratinocytes [2]): decreased keratinocyte differentiation
activity at […] (keratinocytes [3]; Homo sapiens, Keratinocyte, read-out: Transglutaminase level, % CONTROL, Experiment 1): 24%
activity at […] (keratinocytes [3]; Homo sapiens, Keratinocyte, read-out: Transglutaminase level, % CONTROL, Experiment 2): 8%

SMILES: C=CCCC(=O)/C=C/C1C(C)=CCCC1(C)C (stereo not drawn) [allyl alpha ionone]
inhibition at 10 µM (LRAT): 17%

SMILES: CC(=O)CCC1C(C)=CCCC1(C)C (stereo not drawn) [dihydro alpha ionone]
inhibition at 100 µM (LRAT; Table C (comparative), 100 μM): 18%

SMILES: CCCC(O)CCC1C(C)CCCC1(C)C (stereo not drawn) [timberol]
inhibition at 100 µM (LRAT; Table A, 100 μM): 33%

Further lines, with some results ahead:

effect on transglutaminase / keratinocyte differentiation (in words) (keratinocytes [3]): not very effective
SMILES: CC1=C(/C=C/C(C)=C/C=C/C(C)=C/CO)C(C)(C)CCC1 [Retinol]
mean Thymidine incorp./μg protein ± s.d (keratinocytes [1]; […] 10^-7 M): 2218 ± 73 DPM/μg protein
mean Thymidine incorp./μg protein ± s.d (keratinocytes [1]; […] 10^-8 M): 2034 ± 46 DPM/μg protein
mean Thymidine incorp./μg protein ± s.d (keratinocytes [1]; […] 10^-9 M): 1977 ± 19 DPM/μg protein
keratinocyte differentiation / transglutaminase level (in words) (keratinocytes [2]): The decrease in transglutaminase level was dose dependent
mean TGase/DNA × 10^-4 ± s.d (keratinocytes [2]; […] 10^-7 M): 1.14 ± 0.22 × 10^-4
mean TGase/DNA × 10^-4 ± s.d (keratinocytes [2]; […] 10^-8 M): 1.89 ± 0.30 × 10^-4
mean TGase/DNA × 10^-4 ± s.d (keratinocytes [2]; […] 10^-9 M): 2.70 ± 0.59 × 10^-4
activity at 1 µM (keratinocytes [3]; Homo sapiens, Keratinocyte, Experiment 1, .001 mM, read-out: Transglutaminase level, % CONTROL): 67%
activity at […] (keratinocytes [3]; [4]): 63.5%

effect on transglutaminase / keratinocyte differentiation (in words) (keratinocytes [3]): not very effective
SMILES: C/C=C/C(=O)C1C(C)=CCCC1(C)C (stereo not drawn) [alpha damascone]
activity at 1000 µM (keratinocytes [3]; Homo sapiens, Keratinocyte, Experiment 1, read-out: Transglutaminase level, % CONTROL): 92%
activity at 1000 µM (keratinocytes [3]; [4]): 86%

inhibition at 100 µM (LRAT; Table A, 100 μM): 79%
inhibition at 10 µM (LRAT): 29%
SMILES: C/C=C/C(=O)C1C(C)=CC=CC1(C)C (stereo not drawn) [damascenone]

inhibition at 100 µM (LRAT; Table A, 100 μM): 38%
SMILES: C=C1CCCC(C)(C)C1/C=C/C(=O)CC (stereo not drawn) [gamma methyl ionone]

% INHIBITION, LRAT (LRAT; Table C (comparative), 100 μM): 0%
SMILES: CC(C)[C@@H]1CC[C@@H](C)CC1=O [mentone]

From patent publication US5759556A, “Skin care compositions containing certain cyclic aliphatic unsaturated compounds and retinol or retinyl ester” (Chesebrough-Pond's USA Co., Division of Conopco, Inc., priority 1996, dated 1998)
